Biological target: T1, factor D (Homo sapiens, UniProt P00746)
T1 construct: made in house; host or cells: E. coli
Test: factor D inhibition assay of Biological Example 2
Assay type: biochemical

T1 sequence (P00746 26-253): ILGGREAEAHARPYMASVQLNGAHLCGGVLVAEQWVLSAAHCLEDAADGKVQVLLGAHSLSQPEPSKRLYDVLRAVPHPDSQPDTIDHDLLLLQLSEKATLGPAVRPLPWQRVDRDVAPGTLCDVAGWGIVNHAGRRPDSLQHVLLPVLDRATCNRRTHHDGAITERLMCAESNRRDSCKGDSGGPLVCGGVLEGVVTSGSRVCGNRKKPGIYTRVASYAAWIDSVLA

IC50 [nM] | SMILES
25 | COCc1cc(COc2ccccc2CC(=O)O)cc(-c2cccc([C@H](C)N)c2F)c1 [Example 120-I]
280 | CC(O)c1cc(COc2ccccc2CC(=O)O)cc(-c2cccc([C@H](C)N)c2)c1 (some centres unmarked) [Example 120-L]
9 | NCc1cc(F)cc(-c2cc(OC[C@@H]3CCCO3)cc(C(=O)Nc3ccccc3CC(=O)O)c2)c1 [Example 15-B, (S)-2-(2-(3′-(Aminomethyl)-5′-fluoro-5-((tetrahydrofuran-2-yl)methoxy)-[1,1′-biphenyl]-3-ylcarboxamido)phenyl)acetic acid]
9 | NCc1cccc(-c2cccc(COc3cc(C4CC4)ccc3CC(=O)O)c2)c1 [Example 294-A]
399 | NCc1cccc(-c2cccc(C(=O)Nc3cc(Cl)ccc3CC(=O)O)c2)c1 [Example 17-B, 2-(2-(3′-(Aminomethyl)-[1,1′-biphenyl]-3-ylcarboxamido)-4-chlorophenyl)acetic acid]
15 | COc1ccc(C)c(Nc2cc(C(=O)Nc3ccccc3CC(=O)O)cc(-c3cc(F)cc(CN)c3)c2)c1 [Example 14-A]
9 | C[C@@H](N)c1cccc(-c2cc(CCCF)cc(COc3ccccc3CC(=O)O)c2)c1F [Example 269-E, (R)-2-(2-((3′-(1-aminoethyl)-2′-fluoro-5-(3-fluoropropyl)-[1,1′-biphenyl]-3-yl)methoxy)phenyl)acetic acid]
19 | Cc1cc(Nc2cc(C(=O)Nc3ccccc3CC(=O)O)cc(-c3cc(F)cc(CN)c3)c2)n(C)n1 [Example 79-I]
13 | N[C@H](CO)c1cccc(-c2cc(COc3ccccc3CC(=O)O)cc(C(O)C3CCCCC3)c2)c1 (mixture of isomers) [116-I a), 2-(2-((3′-((S)-1-amino-2-hydroxyethyl)-5-(cyclohexyl(hydroxy)methyl)-[1,1′-biphenyl]-3-yl)methoxy)phenyl)acetic acid]
21 | C[C@@H](N)c1cccc(-c2cc(Cl)cc(COc3ccccc3CC(=O)O)c2)c1F [Example 216-S]
32 | NCc1cccc(-c2cc(OCc3ncccn3)cc(C(=O)Nc3ccccc3CC(=O)O)c2)c1 [Example 61-B, 2-(2-(3′-(Aminomethyl)-5-(pyrimidin-2-ylmethoxy)-[1,1′-biphenyl]-3-ylcarboxamido)phenyl)acetic acid]
4030 | NCc1cccc(-c2cccc(COc3ccc(C(N)=O)cc3CC(=O)O)c2)c1 [Example 294-G]
3 | Nc1cc(-c2cccc([C@H](N)CO)c2)cc(COc2ccccc2CC(=O)O)c1F [155 a), (S)-2-(2-((5-Amino-3′-(1-amino-2-hydroxyethyl)-4-fluoro-[1,1′-biphenyl]-3-yl)methoxy)phenyl)acetic acid]
13 | NCc1cccc(-c2cc(O)cc(C(=O)Nc3ccccc3CC(=O)O)n2)c1 [Example 55, 2-(2-(6-(3-(Aminomethyl)phenyl)-4-hydroxypicolinamido)phenyl)acetic acid]
13 | CC(O)c1cc(COc2ccccc2CC(=O)O)cc(-c2cccc([C@H](N)CO)c2)c1 (single isomer, unassigned) [116-E b) (tr = 5.7 min)]
14300 | NCc1cccc(-c2cc(C(=O)Nc3ccccc3CC(=O)O)ccn2)c1 [Example 38, 2-(2-(2-(3-(Aminomethyl)phenyl)isonicotinamido)phenyl)acetic acid]
22 | NCc1cc(F)cc(-c2cc(Nc3ccn[nH]3)cc(C(=O)Nc3ccccc3CC(=O)O)c2)c1 [Example 79-G]
30 | CC(=O)Nc1cc(C(=O)Nc2ccccc2CC(=O)O)cc(-c2cc(F)cc(CN)c2)c1 [Example 67-B, 2-(2-(5-Acetamido-3′-(aminomethyl)-5′-fluoro-[1,1′-biphenyl]-3-ylcarboxamido)phenyl)acetic acid]
18 | CN(C)c1cc(COc2ccccc2CC(=O)O)cc(-c2cccc([C@H](N)CO)c2)c1 [Example 132, (S)-2-(2-((3′-(1-Amino-2-hydroxyethyl)-5-(dimethylamino)-[1,1′-biphenyl]-3-yl)methoxy)phenyl)acetic acid]
3 | NCc1cccc(-c2cc(CNCC(F)(F)F)cc(COc3ccccc3CC(=O)O)c2)c1 [Example 208-E]
77 | NCc1cccc(-c2cccc(COc3ccccc3CC(=O)O)c2)c1Cl [Example 142-B]
55 | NCc1cc(F)cc(-c2cc(C(=O)Nc3ccccc3CC(=O)O)cc(N3CCOCC3)c2)c1 [Example 77-B, 2-(2-(3′-(Aminomethyl)-5′-fluoro-5-morpholino-[1,1′-biphenyl]-3-ylcarboxamido)phenyl)acetic acid]
27 | CN(C)C(c1cc(COc2ccccc2CC(=O)O)cc(-c2cccc(CN)c2)c1)C(F)(F)F (centres unmarked) [Example 208-B]
2410 | CC(=O)NC(C(=O)O)c1ccccc1OCc1cccc(-c2cccc(CN)c2)c1 (centres unmarked) [Example 296, 2-acetamido-2-(2-((3′-(aminomethyl)-[1,1′-biphenyl]-3-yl)methoxy)phenyl)acetic acid]

IC50 [nM] | SMILES
4 | NCc1cccc(-c2cc(COc3ccccc3CC(=O)O)cc(COc3ccccc3CC(=O)O)c2)c1 [Example 116-C]
23 | NCc1cccc(-c2ccc(F)c(COc3ccccc3CC(=O)O)c2)c1 [Example 166, 2-(2-((3′-(Aminomethyl)-4-fluoro-[1,1′-biphenyl]-3-yl)methoxy)phenyl)acetic acid]
58 | C[C@@H](N)c1cccc(-c2cc(CNCC(F)(F)F)cc(COc3ccccc3CC(=O)O)c2)c1F [Example 285-B]
5 | NCc1cccc(-c2cc(COc3ccccc3CC(=O)O)cc(C(N)C(F)(F)F)c2)c1 (racemic) [Example 207-B, (±)-2-(2-((5-(1-Amino-2,2,2-trifluoroethyl)-3′-(aminomethyl)-[1,1′-biphenyl]-3-yl)methoxy)phenyl)acetic acid]
5 | NC(CF)c1cccc(-c2cc(COc3ccccc3CC(=O)O)cc(OCC3CC3)c2)c1F (racemic) [Example 206, (±)-2-(2-((3′-(1-Amino-2-fluoroethyl)-5-(cyclopropylmethoxy)-2′-fluoro-[1,1′-biphenyl]-3-yl)methoxy)phenyl)acetic acid]
6 | NCc1cccc(-c2cc(N3CCN(c4ccccc4)CC3)cc(C(=O)Nc3ccccc3CC(=O)O)n2)c1 [Example 51, 2-(2-(6-(3-(Aminomethyl)phenyl)-4-(4-phenylpiperazin-1-yl)picolinamido)phenyl)acetic acid]
6 | NC(CF)c1cccc(-c2cc(COc3ccccc3CC(=O)O)cc(OC[C@H]3CCCO3)c2)c1F (single isomer, unassigned; (+)) [Example 212-B]
99 | C[C@@H](N)c1cccc(-c2cc(COc3ccccc3CC(=O)O)ccc2F)c1 [Example 124, (R)-2-(2-((3′-(1-Aminoethyl)-6-fluoro-[1,1′-biphenyl]-3-yl)methoxy)phenyl)acetic acid]
9 | NC(CF)c1cccc(-c2cccc(COc3ccccc3CC(=O)O)c2)c1 (single isomer, unassigned; (+)) [Example 190-B (+), (+)-2-(2-((3′-(1-amino-2-fluoroethyl)-[1, 1′-biphenyl]-3-yl)methoxy)phenyl)acetic acid]
67 | CCC[C@@H](N)c1cccc(-c2cc(COC)cc(COc3ccccc3CC(=O)O)c2)c1 [Example 118, (R)-2-(2-((3′-(1-Aminobutyl)-5-(methoxymethyl)-[1,1′-biphenyl]-3-yl)methoxy)phenyl)acetic acid]
223 | NCc1cc(-c2cccc(COc3ccccc3CC(=O)O)c2)ccc1F [Example 138-D]
11300 | CCC[C@@H](N)c1cccc(-c2cccc(COc3ccccc3CC(=O)O)c2)n1 [Example 196-A]
958 | N[C@H](CCO)c1cccc(-c2cccc(C(=O)Nc3ccccc3CC(=O)O)c2)c1 [Example 88, (R)-2-(2-(3′-(1-Amino-3-hydroxypropyl)-[1,1′-biphenyl]-3-ylcarboxamido)phenyl)acetic acid]
3 | C[C@@H](N)c1cccc(-c2cc(COc3ccccc3CC(=O)O)cc(C3CCCC3)c2)c1F [Example 244, (R)-2-(2-((3′-(1-aminoethyl)-5-cyclopentyl-2′-fluoro-[1,1′-biphenyl]-3-yl)methoxy)phenyl)acetic acid]
56 | N[C@@H](CF)c1cccc(-c2cc(COc3ccccc3CC(=O)O)cc(NCC3CC3)c2)c1F [Example 216-B]
17 | NCc1cc(F)cc(-c2cc(OCc3ccncc3)cc(C(=O)Nc3ccccc3CC(=O)O)c2)c1 [Example 65, 2-(2-(3′-(Aminomethyl)-5′-fluoro-5-(pyridin-4-ylmethoxy)-[1,1′-biphenyl]-3-ylcarboxamido)phenyl)acetic acid]
6 | CNc1cc(C(=O)Nc2ccccc2CC(=O)O)nc(-c2cccc(CN)c2)c1 [Example 46, 2-(2-(6-(3-(aminomethyl)phenyl)-4-(methylamino)picolinamido)phenyl)acetic acid]
9 | CC(C)CNc1cc(COc2ccccc2CC(=O)O)cc(-c2cccc([C@@H](C)N)c2F)c1 [Example 224-B, (R)-2-(2-((3′-(1-aminoethyl)-2′-fluoro-5-(isobutylamino)-[1,1′-biphenyl]-3-yl)methoxy)phenyl)acetic acid]
1130 | NCc1cccc(-c2nc(C(=O)Nc3ccccc3CC(=O)O)c[nH]2)c1 [Example 43, 2-(2-(2-(3-(Aminomethyl)phenyl)-1H-imidazole-4-carboxamido)phenyl)acetic acid]
22 | Cn1ccc(Nc2cc(C(=O)Nc3ccccc3CC(=O)O)cc(-c3cc(F)cc(CN)c3)c2)n1 [Example 79-C]
7 | NCc1cc(F)cc(-c2nc(C(=O)Nc3ccccc3CC(=O)O)c(NC[C@@H]3CCCO3)s2)c1 [Example 33, (S)-2-(2-(2-(3-(Aminomethyl)-5-fluorophenyl)-5-(((tetrahydrofuran-2-yl)methyl)amino)thiazole-4-carboxamido)phenyl)acetic acid]
5 | COCCn1cc(-c2cc(COc3ccccc3CC(=O)O)cc(-c3cccc(CN)c3)c2)cn1 [Example 209-E]
45 | CC(=O)Nc1cc(C(=O)Nc2ccccc2CC(=O)O)cc(-c2cccc(CN)c2)c1 [Example 5, 2-(2-(5-Acetamido-3′-(aminomethyl)-[1,1′-biphenyl]-3-ylcarboxamido)phenyl)acetic acid]

Source: patent US20160145247A1, “Aminomethyl-Biaryl Derivatives Complement Factor D inhibitors and uses thereof” (NOVARTIS AG, priority 2013, published 2016)
